Results taken from paper PMC11176637 (iScience, 2024).

Legend:
Assay type in all cases: cell-based
[1] = system: VSVΔG-SM (MERS-CoV S glycoprotein); conditions: 0.3125–40 μM
SARS-CoV-2 XBB.1.5 = system: SARS-CoV-2 XBB.1.5
SARS-CoV-2 CH.1.1 = system: SARS-CoV-2 CH.1.1
[2] = system: VSVΔG-G (vesicular stomatitis virus glycoprotein); test: microbe, parasite or virus in culture; conditions: for IC50: Vesicular stomatitis virus, read-out: IC50, VSVΔG pseudotypes: G; for IC50 against VSVΔG-G: 0.3125–40 μM
[3] = system: VSVΔG-Sδ (SARS-CoV-2 Delta S glycoprotein); test: microbe, parasite or virus in culture; conditions: for IC50: Severe acute respiratory syndrome coronavirus 2, read-out: IC50 against VSVΔG-Sδ
[4] = system: VSVΔG-Sα (SARS-CoV-2 Alpha S glycoprotein); test: microbe, parasite or virus in culture; conditions: Severe acute respiratory syndrome coronavirus 2, read-out: IC50 against VSVΔG-Sα
[5] = system: SARS-CoV-2 Delta (B.1.617.2)
[6] = system: VSVΔG-Sο (SARS-CoV-2 Omicron S glycoprotein); test: microbe, parasite or virus in culture; conditions: Severe acute respiratory syndrome coronavirus 2, read-out: IC50 against VSVΔG-Sο

Compound | IC50 against VSVΔG-SM [1] | IC50, SARS-CoV-2: XBB.1.5 viral replication (SARS-CoV-2 XBB.1.5) | IC50, SARS-CoV-2: CH.1.1 viral replication (SARS-CoV-2 CH.1.1) | IC50 [2] | IC50 [4] | IC50 against VSVΔG-G [2] | IC50 [3] | other results
COc1ccc2cc3c(N)nn(C(=O)Cc4c[nH]c5ccccc45)c3nc2c1 [PCM-0166392, 1-{6-amino-12-methoxy-2,4,5-triazatricyclo[7.4.0.0³,⁷]trideca-1,3(7),5,8,10,12-hexaen-4-yl}-2-(3-indolyl)-1-ethanone] | not selective | – | – | – | – | – | – | –
Cc1cccc(NC(=O)C[S+]([O-])c2nc(-c3ccccc3)cn2-c2ccc(Cl)cc2)c1C (racemic) [PCM-0282478, 2-((1-(4-chlorophenyl)-4-phenyl-1H-imidazol-2-yl)sulfinyl)-N-(2,3-dimethylphenyl)acetamide] | – | neither inhibited | neither inhibited | > 10000 nM | – | – | – | times more potent than synthesized PCM-0163855 against VSVΔG-Sδ [3]: approximately 10 times
N=C(N)Nc1ccc(C(=O)Oc2ccc3cc(C(=N)N)ccc3c2)cc1 [PCM-0095060, 6-amidino-2-naphthyl p-guanidinobenzoate, reference compound] | – | – | – | – | 920 nM | no significant activity | 310 nM | inhibition of bona fide SARS-CoV-2 Delta virus replication [5]: failed to inhibit
Cc1cccc(NC(=O)CS(=O)(=O)c2nc(-c3ccccc3)cn2-c2ccc(Cl)cc2)c1C [PCM-0163855, 2-((1-(4-chlorophenyl)-4-phenyl-1H-imidazol-2-yl)sulfonyl)-N-(2,3-dimethylphenyl)acetamide] | inactive | neither inhibited | neither inhibited | > 10000 nM | 370 nM | – | 450 nM | IC50 [6]: 41200 nM
CNC(=O)C(C#N)(Cc1cc(Cl)cc2c1OCOC2)Cc1cc(Cl)cc2c1OCOC2 [PCM-0068389, N-methyl3-(6-chloro-2,4-dihydro-1,3-benzodioxin-8-yl)-2-[(6-chloro-2,4-dihydro-1,3-benzodioxin-8-yl)methyl]-2-cyanopropionamide] | lost all activity | – | – | – | – | some activity | – | –
Nc1nc(Nc2ccccc2)sc1C(=O)c1ccccc1Cl [PCM-0179622, (4-amino-2-anilino-1,3-thiazol-5-yl)(o-chlorophenyl)methanone] | not selective | – | – | – | – | – | – | –
